Reference: ChEMBL document CHEMBL1909046, “DrugMatrix in vitro pharmacology data”

What was measured:
[1] = biological target: T1, Cytochrome P450 2A6 (Homo sapiens, UniProt P11509); conditions: bti-tn-5b1-4; note: in other assays of this panel Not Active means under 50% inhibition at 10 µM
T1 sequence (P11509 whole entry): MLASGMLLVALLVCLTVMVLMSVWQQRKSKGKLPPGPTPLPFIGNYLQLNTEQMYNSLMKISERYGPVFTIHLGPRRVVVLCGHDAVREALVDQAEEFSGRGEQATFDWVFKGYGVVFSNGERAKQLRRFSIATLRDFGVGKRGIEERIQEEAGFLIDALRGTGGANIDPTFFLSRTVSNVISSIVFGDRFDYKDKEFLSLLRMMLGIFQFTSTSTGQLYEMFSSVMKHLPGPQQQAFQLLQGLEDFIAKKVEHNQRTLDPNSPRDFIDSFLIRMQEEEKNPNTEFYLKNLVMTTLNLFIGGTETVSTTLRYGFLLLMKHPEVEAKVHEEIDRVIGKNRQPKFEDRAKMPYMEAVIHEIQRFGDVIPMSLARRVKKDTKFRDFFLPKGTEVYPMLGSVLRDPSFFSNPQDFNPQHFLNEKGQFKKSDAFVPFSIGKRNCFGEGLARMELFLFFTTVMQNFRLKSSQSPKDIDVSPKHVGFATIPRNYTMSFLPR

[2] = biological target: cGMP-specific 3',5'-cyclic phosphodiesterase (Homo sapiens, UniProt O76074); assay: DRUGMATRIX: Phosphodiesterase PDE5 enzyme inhibition (substrate: [3H]cGMP + cGMP); assay type: tissue-based, Platelet; conditions: platelet; Not Active = under 50% inhibition at 10 µM
[3] = biological target: Protein phosphatase 3 catalytic subunit alpha (Homo sapiens, UniProt Q08209); parameters: species or system Escherichia coli;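 note: inhibition of calcineurin (PP2B) enzyme activity, measured with DiFMUP as the substrate; in other assays of this panel Not Active means under 50% inhibition at 10 µM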
[4] = DRUGMATRIX: Nicotinic Acetylcholine radioligand binding (ligand: [125I] Epibatidine); assay type: cell membranes, Membrane; conditions: imr-32; Not Active = under 50% inhibition at 10 µM
[5] = DRUGMATRIX: ATPase, Na+/K+ enzyme inhibition (substrate: ATP); assay type: tissue-based, Sus scrofa, Heart; conditions: Not Active = under 50% inhibition at 10 µM
[6] = biological target: T2, Substance-K receptor (Homo sapiens, UniProt P21452); assay type: cell membranes, CHO, Membrane; note: in other assays of this panel Not Active means under 50% inhibition at 10 µM
T2 sequence (P21452 whole entry): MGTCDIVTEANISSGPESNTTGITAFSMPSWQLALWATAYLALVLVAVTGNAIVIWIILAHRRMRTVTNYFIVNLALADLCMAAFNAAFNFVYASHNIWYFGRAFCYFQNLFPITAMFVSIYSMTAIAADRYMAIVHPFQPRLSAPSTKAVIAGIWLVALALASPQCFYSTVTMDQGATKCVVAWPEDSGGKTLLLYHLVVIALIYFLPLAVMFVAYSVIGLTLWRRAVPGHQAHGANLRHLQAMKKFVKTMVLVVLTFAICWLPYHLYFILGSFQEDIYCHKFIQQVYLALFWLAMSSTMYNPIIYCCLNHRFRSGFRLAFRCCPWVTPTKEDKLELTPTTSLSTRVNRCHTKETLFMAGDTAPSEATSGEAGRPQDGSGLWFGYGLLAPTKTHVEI

[7] = biological target: T3, Thromboxane-A synthase (Homo sapiens, UniProt P24557); assay: biochemical; assay type: tissue-based, Platelet; conditions: platelet;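 note: enzyme inhibition assay with PGH2 supplied as substrate; in other assays of this panel Not Active means under 50% inhibition at 10 µM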
T3 sequence (P24557 whole entry): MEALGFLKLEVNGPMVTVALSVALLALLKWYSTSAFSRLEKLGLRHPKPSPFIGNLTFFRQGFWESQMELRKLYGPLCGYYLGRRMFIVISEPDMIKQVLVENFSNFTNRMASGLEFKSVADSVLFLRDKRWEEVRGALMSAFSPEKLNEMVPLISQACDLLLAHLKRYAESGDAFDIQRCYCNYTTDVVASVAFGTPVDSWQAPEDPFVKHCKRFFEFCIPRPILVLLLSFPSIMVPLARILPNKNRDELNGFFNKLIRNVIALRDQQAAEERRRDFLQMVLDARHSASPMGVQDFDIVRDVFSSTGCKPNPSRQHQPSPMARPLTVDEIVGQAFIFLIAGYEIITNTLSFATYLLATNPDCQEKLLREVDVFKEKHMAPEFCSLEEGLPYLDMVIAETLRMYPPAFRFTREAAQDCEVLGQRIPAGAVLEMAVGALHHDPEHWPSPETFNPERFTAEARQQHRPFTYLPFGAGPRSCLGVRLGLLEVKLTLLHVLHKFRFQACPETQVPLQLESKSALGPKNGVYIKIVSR

[8] = biological target: Melanocortin receptor 3 (Homo sapiens, UniProt P41968); assay type: cell membranes, Membrane; conditions: hek293; note: in other assays of this panel Not Active means under 50% inhibition at 10 µM
Chain of Melanocortin receptor 3 (P41968 whole entry): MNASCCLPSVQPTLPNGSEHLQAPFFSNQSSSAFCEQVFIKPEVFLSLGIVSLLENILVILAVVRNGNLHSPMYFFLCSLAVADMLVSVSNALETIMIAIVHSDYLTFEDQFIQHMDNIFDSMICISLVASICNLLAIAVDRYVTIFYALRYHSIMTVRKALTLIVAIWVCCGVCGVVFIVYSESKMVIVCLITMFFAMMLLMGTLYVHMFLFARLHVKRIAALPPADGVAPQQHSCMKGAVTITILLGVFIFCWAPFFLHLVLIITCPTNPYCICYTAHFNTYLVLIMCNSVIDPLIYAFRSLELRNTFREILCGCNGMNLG

[9] = biological target: T4, C-X-C chemokine receptor type 1 (Homo sapiens, UniProt P25024); note: in other assays of this panel Not Active means under 50% inhibition at 10 µM
T4 sequence (P25024 whole entry): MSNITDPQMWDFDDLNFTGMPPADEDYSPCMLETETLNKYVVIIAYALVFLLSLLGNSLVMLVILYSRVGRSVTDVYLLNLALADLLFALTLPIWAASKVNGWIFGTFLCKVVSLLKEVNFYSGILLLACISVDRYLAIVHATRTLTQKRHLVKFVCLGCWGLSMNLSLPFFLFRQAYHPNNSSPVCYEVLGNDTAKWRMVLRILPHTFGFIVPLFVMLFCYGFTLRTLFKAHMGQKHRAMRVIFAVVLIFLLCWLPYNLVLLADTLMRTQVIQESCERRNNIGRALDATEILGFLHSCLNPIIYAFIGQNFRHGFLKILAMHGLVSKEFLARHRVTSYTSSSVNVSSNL

[10] = biological target: T5, Cytochrome P450 1A2 (Homo sapiens, UniProt P05177); conditions: bti-tn-5b1-4; note: in other assays of this panel Not Active means under 50% inhibition at 10 µM
T5 sequence (P05177 whole entry): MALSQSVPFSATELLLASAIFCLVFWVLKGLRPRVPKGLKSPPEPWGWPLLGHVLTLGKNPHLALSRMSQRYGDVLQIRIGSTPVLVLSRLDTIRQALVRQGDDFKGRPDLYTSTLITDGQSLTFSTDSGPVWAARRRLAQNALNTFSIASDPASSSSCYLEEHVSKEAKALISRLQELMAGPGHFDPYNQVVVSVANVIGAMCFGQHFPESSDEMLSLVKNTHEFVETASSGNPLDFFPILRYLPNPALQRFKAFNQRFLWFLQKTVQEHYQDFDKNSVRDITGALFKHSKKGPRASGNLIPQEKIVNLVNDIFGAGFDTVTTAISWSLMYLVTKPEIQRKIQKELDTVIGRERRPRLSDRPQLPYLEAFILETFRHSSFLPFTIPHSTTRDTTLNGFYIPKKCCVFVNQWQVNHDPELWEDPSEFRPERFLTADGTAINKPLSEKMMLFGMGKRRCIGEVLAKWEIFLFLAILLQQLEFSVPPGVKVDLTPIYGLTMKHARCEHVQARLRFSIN

CC=CC(=O)N(CC)c1ccccc1C
Not Active: IC50 [1] | Ki [1] | IC50 [2] | IC50 [3] | IC50 [4] | Ki [4] | IC50 [5] | Ki [5] | IC50 ([6]; cho) | IC50 [7] | IC50 [8] | IC50 [9] | IC50 [10] | Ki [10]

C=C1C(=O)O[C@@H]2C3O[C@]3(C)CC/C=C(\C)CC[C@@H]12 (stereo partly specified)
Not Active: IC50 [1] | Ki [1] | IC50 [2] | IC50 [3] | IC50 [4] | Ki [4] | IC50 [5] | Ki [5] | IC50 ([6]; cho) | IC50 [7] | IC50 [8] | IC50 [9] | IC50 [10] | Ki [10]

CCCCCCCCCc1ccc(O)cc1 [4-NONYLPHENOL]
4.51 µM: IC50 ([6]; read-out: IC50)
1.51 µM: Ki ([6]; read-out: Ki)
Not Active: IC50 [1] | Ki [1] | IC50 [2] | IC50 [3] | IC50 [4] | Ki [4] | IC50 [5] | Ki [5] | IC50 [7] | IC50 [8] | IC50 [9] | IC50 [10] | Ki [10]

COc1ccc2c(c1)c(CC(=O)OCC(=O)O)c(C)n2C(=O)c1ccc(Cl)cc1 [ACEMETACIN]
Not Active: IC50 [1] | Ki [1] | IC50 [2] | IC50 [3] | IC50 [4] | Ki [4] | IC50 [5] | Ki [5] | IC50 ([6]; cho) | IC50 [7] | IC50 [8] | IC50 [9] | IC50 [10] | Ki [10]

CCCSc1ccc2nc(NC(=O)OC)[nH]c2c1 [ALBENDAZOLE]
Not Active: IC50 [1] | Ki [1] | IC50 [2] | IC50 [3] | IC50 [4] | Ki [4] | IC50 [5] | Ki [5] | IC50 ([6]; cho) | IC50 [7] | IC50 [8] | IC50 [9] | IC50 [10] | Ki [10]

NCC[C@H](O)C(=O)N[C@@H]1C[C@H](N)[C@@H](O[C@H]2O[C@H](CN)[C@@H](O)[C@H](O)[C@H]2O)[C@H](O)[C@H]1O[C@H]1O[C@H](CO)[C@@H](O)[C@H](N)[C@H]1O [AMIKACIN]
Not Active: IC50 [1] | Ki [1] | IC50 [2] | IC50 [3] | IC50 [4] | Ki [4] | IC50 [5] | Ki [5] | IC50 ([6]; cho) | IC50 [7] | IC50 [8] | IC50 [9] | IC50 [10] | Ki [10]

CCOC(=O)OC(C)OC1=C(C(=O)Nc2ccccn2)N(C)S(=O)(=O)c2ccccc21 (stereo unspecified) [AMPIROXICAM]
Not Active: IC50 [1] | Ki [1] | IC50 [2] | IC50 [3] | IC50 [4] | Ki [4] | IC50 [5] | Ki [5] | IC50 ([6]; cho) | IC50 [7] | IC50 [8] | IC50 [9] | IC50 [10] | Ki [10]

N#C[C@H](O[C@@H]1O[C@H](CO[C@@H]2O[C@H](CO)[C@@H](O)[C@H](O)[C@H]2O)[C@@H](O)[C@H](O)[C@H]1O)c1ccccc1 [AMYGDALIN]
Not Active: IC50 [1] | Ki [1] | IC50 [2] | IC50 [3] | IC50 [4] | Ki [4] | IC50 [5] | Ki [5] | IC50 ([6]; cho) | IC50 [7] | IC50 [8] | IC50 [9] | IC50 [10] | Ki [10]

N=C(N)NCCCCNC(=N)N.O=S(=O)(O)O [ARCAINE SULFATE]
Not Active: IC50 [1] | Ki [1] | IC50 [2] | IC50 [3] | IC50 [4] | Ki [4] | IC50 [5] | Ki [5] | IC50 ([6]; cho) | IC50 [7] | IC50 [8] | IC50 [9] | IC50 [10] | Ki [10]

C=C1[C@@H]2CCC3[C@@](CC[C@@H]4[C@H](C(=O)O)C[C@@H](O[C@@H]5O[C@H](CO)[C@@H](OS(=O)(=O)[O-])[C@H](OS(=O)(=O)[O-])[C@H]5OC(=O)CC(C)C)C[C@@]34C)(C2)[C@@H]1O.[K+].[K+] (stereo partly specified) [ATRACTYLOSIDE]
Not Active: IC50 [1] | Ki [1] | IC50 [2] | IC50 [3] | IC50 [4] | Ki [4] | IC50 [5] | Ki [5] | IC50 ([6]; cho) | IC50 [7] | IC50 [8] | IC50 [9] | IC50 [10] | Ki [10]
